Source: patent publication US8309596B2, “Kallikrein 7 modulators” (Novartis AG, priority 2007, dated 2012)
Marks after values point to notes of the source that are not given here. One block for each molecule: values may come before it.

Experiments:
hairless SKH1 mice = experiment: Test on recovery of skin barrier disruption in mice (TEWL); assay type: in vivo; details: 10 mM
Procedure: Method: Skin barrier disruption is achieved in groups of hairless SKH1 mice with repeated stripping of the skin with S-Sqame® skin sampling disks. The procedure is completed when transepidermal water loss (TEWL) achieved ≧[…]. TEWL is assessed with a Tewameter TM210 (Courage Khazaka, Cologne, Del.). Immediately after barrier disruption 30 μl of the compound of example 37(=Test compound 1) is applied at 10 mM concentration. Controls animals are treated similarly with the solvent (EtOH/propylene glycol, 3/7 (v/v)) alone. TEWL is measured before, immediately after, and at 3 hrs after barrier disruption. In each animal, the percentage recovery is calculated using the formula: (1−[TEWL at 3 hrs−base line TEWL]/[TEWL immediately after stripping−base line TEWL])×100%.

Crl:NMRI mice = experiment: Anti-inflammatory activity in murine model of irritant contact dermatitis (ICD), TPA-induced; assay type: in vivo; details: for % Inhibition inflammatory swelling [Mean ± SEM values]: 10 μl topically 30 minutes prior to TPA challenge, auricular weight 6 hours after challenge, n 24
Procedure: Method: Crl:NMRI mice are challenged with 10 μl 0.005% phorbol 12-myristat-13-acetate (TPA) on the inner surface of the right ear. The unchallenged left ears serve as normal controls and dermatitis is evaluated from the difference in auricular weight (taken as a measure of inflammatory swelling) 6 hours after the challenge. The animals are treated topically with 10 μl of the test compound 1 or the solvent 30 minutes prior to the challenge. The efficacy of the treatment is calculated as the percentage inhibition of inflammatory auricular swelling relative to animals treated with the vehicle alone.

swine = experiment: Anti-inflammatory activity in swine model of allergic contact dermatitis (ACD), DNFB; assay type: in vivo
Procedure: Eight days before the elicitation of the ACD, […] of 10% 2,4-dinitrofluorobenzene (DNFB, dissolved in DMSO/acetone/olive oil [1/5/3, v/v/v]) are applied epicutaneously in divided volumes onto the basis of both ears and onto both groins (100 μl/site) for sensitization. The challenge reactions are elicited with 15 μl of DNFB (1.0%) on contralateral test sites (each 7 cm^2 in size) of the shaved dorsolateral back. For treatment, the compound of example 11 (=Test compound 2) and the placebo (solvent only) are applied contralaterally to 2 test sites in each animal 0.5 and 6 hours after the challenge. The test sites are clinically examined 24 hours after the challenge when inflammation peaks. The changes are scored on a scale from 0 to 4 (Table XY), allowing a combined maximal score of 12 per designated site. Skin reddening is measured reflectometrically using a* values (see Table 3)

Kallikrein-7 = Kallikrein-7 (Homo sapiens, UniProt P49862); experiment: Kallikrein-7 inhibition, fluorescence-quenched substrate, determination of IC50 values; assay type: biochemical; details: pH 5.6, 1 hour preincubation, 0.2 nM protease, 2 μM substrate, room temperature
Sequence of Kallikrein-7 (P49862 30-253): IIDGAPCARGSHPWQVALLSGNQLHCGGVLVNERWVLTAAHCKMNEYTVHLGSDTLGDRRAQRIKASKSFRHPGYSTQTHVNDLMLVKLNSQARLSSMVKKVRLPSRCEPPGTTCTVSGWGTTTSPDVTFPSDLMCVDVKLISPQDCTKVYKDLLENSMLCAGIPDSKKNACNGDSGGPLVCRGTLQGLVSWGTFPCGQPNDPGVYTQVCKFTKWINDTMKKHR
Procedure: The fluorescence-quenched substrate Ac-Glu-Asp(EDANS)-Lys-Pro-Ile-Leu-Phe^Arg-Leu-Gly-Lys(DABCYL)-Glu-NH2 (where ^ indicates the scissile bond, identified by MS analysis) is purchased from Biosyntan (Berlin, Germany) and kept as a 5 mM stock solution in DMSO at −20° C. All other chemicals are of analytical grade.
Enzymatic reactions are conducted in 50 mM sodium citrate buffer at pH 5.6 containing 150 mM NaCl and 0.05% (w/v) CHAPS.
All protein and peptide containing solutions are handled in siliconized tubes (Life Systems Design, Merenschwand, Switzerland). […]
For fluorescence intensity (FI) measurements an Ultra Evolution reader (TECAN, Maennedorf, Switzerland) is used. The instrument is equipped with a combination of a 350 nm (20 nm bandwidth) and a 500 nm (25 nm bandwidth) bandpath filter for fluorescence excitation and emission acquisition, respectively. […]
For the determination of IC50 values the assay is performed at room temperature in 384-well plates. […] The protease concentration in final assay solution is 0.2 nM (according to the enzyme concentrations determined by the Bradford method). […] The effect of the compound on the enzymatic activity is obtained from the linear progress curves and determined from two readings, the first one taken directly after the addition of substrate and the second one after 1 hour. […]

Structure (SMILES): COc1ccc(CCNC(=O)[C@@H]2[C@H]3C[C@H]3CN2C(=O)NCc2cccc3ccc(Cl)cc23)cc1 [Example 37, (1S,2S,5R)-3-aza-bicycic[3.1.0]hexane-2,3-dicarboxylic acid 3-[(7-chloro-naphthalen-1-ylmethyl)-amide] 2-{[2-(4-methoxy-phenyl)-ethyl]-amide}]
- % Recovery in barrier disruption Mean (SD values) (hairless SKH1 mice; 30 μl applied immediately after barrier disruption, TEWL at 3 hrs, n: 8 or 12 animals per group): 76 (3.3)*** %
- acceleration of barrier repair compared to repair in mice treated with the solvent alone (hairless SKH1 mice; single application, p<0.001): 65-76%
- % Inhibition inflammatory swelling [Mean ± SEM values] (Crl:NMRI mice; 10 mM): 41 ± 5.3***^24%
- inhibition of inflammatory swelling (Crl:NMRI mice; 20 mM concentrations as printed in text): 54-73%
- % Inhibition inflammatory swelling [Mean ± SEM values] (Crl:NMRI mice; 30 mM): 73 ± 7.0***^24%

Structure (SMILES): C#Cc1ccc2cccc(CNC(=O)N3CCC[C@H]3C(=O)NCc3cccnc3)c2c1 [Example 11, (S)-Pyrrolidine-1,2-dicarboxylic acid 1-[(7-ethynyl-naphthalen-1-ylmethyl)-amide] 2-[(pyridin-3-ylmethyl)-amide]]
- A* value (Mean, SD, n: 8), skin reddening measured reflectometrically (swine; 1% solution applied 0.5 and 6 hours after challenge, 24 hours after challenge): 7.7 (1.6)
- Clinical score (Mean, SD, n: 8) (swine; 1% solution applied 0.5 and 6 hours after challenge, examined 24 hours after challenge, maximal score 12): 4.1 (1.3)
- Inhibition vs placebo-treated sites, Clinical score (swine; 1% solution, Mean, SD): 42.4 (11.1)
- inhibition of clinical inflammatory changes (swine; 1% solution, p<0.01): 42%

- IC50 (Kallikrein-7): 3 nM
Structure (SMILES): O=C(NCc1cccnc1)[C@@H]1[C@H]2C[C@H]2CN1C(=O)NCc1cccc2ccc(Cl)cc12 [Example 36, (1S,2S,5R)-3-aza-bicyclo[3.1.0]hexane-2,3-dicarboxylic acid 3-[(7-chloro-naphthalen-1-ylmethyl)-amide] 2-[(pyridin-3-ylmethyl)-amide]]
